{"source": "patent US6030955A", "about": "“Methods of affecting intracellular phosphorylation of tyrosine using phosphorothioate oligonucleotides, and antiangiogenic and antiproliferative uses thereof” (The Trustees of Columbia University in The City of New York …, priority 1996, dated 2000)", "tested_on": "cell surface flk-1", "test": "FACS analysis of blockade of anti-flk-1 MAb binding to C441 cells", "set-up": "species or system mouse/human", "conditions": "cells preincubated with 10 μg/ml heparin", "protocol": "For binding studies, C441 cells were removed with 2 mM EDTA in PBS, washed with cold Hanks balanced salt solution supplemented with 1% BSA (HBSS-BSA) and then resuspended in 100 μl of the same buffer at a concentration of 1 million cells per sample. Where indicated, cells were incubated with 2 μM oligodeoxynucleotides of 10 μg/ml heparin. After a 30 minute incubation on ice, cells were washed and reincubated for 30 minutes with 10 μg of the appropriate MAb. After washing, a 1:40 dilution of goat anti-mouse lgG conjugated to FITC (TAGO) was added for a final 30 minute incubation on ice. Cells were then analyzed on a Coulter Epics Elite Cytometer.", "data": [{"substance": "heparin", "values": [{"measurement": "binding of anti-flk-1 MAb 73 to C441 cells", "value": "inhibition"}, {"measurement": "binding of anti-flk-1 MAb 115 to C441 cells", "value": "inhibition"}]}]}
